One data set has as its system rat. The data set is described as follows: Acute toxicity LD50 in rat. It counts as in vivo.

As for `O=C(O)/C=C/CO` [hydroxycrotonic acid], the Ames-Test result in the data set “Ames-Test (mutagenicity)” is given as “negative”. Besides, the “LD50 (rat)” value in the data set on rat is given as over 2000 mg/kg bw.

Values taken from patent publication US9394238B2, “Process for the production of carnitine from β-lactones” (Lonza Ltd., priority 2010, dated 2016).
